# Experimental data: US20070128217A1 (priority 2003, published 2007)
# What was measured:
# [1] = tested on: rabbit serum obtained by immunizing a rabbit with the SARS-CoV strain Frankfurt 1; type: binding; set-up: Binding of a rabbit serum to linear peptides / Binding of a rabbit serum to looped peptides / Rabbit serum linear peptides / Rabbit serum looped peptides / Binding of a rabbit serum to linear peptides of protein N of SARS-CoV Urbani (Rabbit serum linear peptides) / Binding of a rabbit serum to looped/cyclic peptides of protein N of SARS-CoV Urbani (Rabbit serum looped peptides): unit not given here
# [2] = tested on: control sera (pooled serum of ten healthy LUMC hospital workers; commercial negative donor pooled serum from the Dutch bloodbank); type: binding, human; set-up: Binding of Control serum LUMC to linear peptides / Binding of Control serum Blood-bank to linear peptides / Binding of Control serum LUMC to looped peptides / Binding of Control Serum Blood-Bank to Looped peptides / Binding of Control serum LUMC to linear peptides of the protein M of SARS-CoV Urbani / Binding of Control serum Blood-bank to linear peptides of the protein M of SARS-CoV Urbani / Binding of Control serum LUMC to looped peptides of the protein M of SARS-CoV Urbani / Binding of Control Serum Blood-Bank to Looped peptides of the protein M of SARS-CoV Urbani: unit not given here
# [3] = tested on: antibodies in sera from SARS patients (sera 1a, 1b, 2, 6, 37, 62, London, SARS-yellow, SARS-green); type: binding, human; set-up: Binding of serum 6 to linear peptides of protein X1 of SARS-CoV Urbani / Binding of serum 37 to linear peptides of protein X1 of SARS-CoV Urbani / Binding of serum 6 to looped/cyclic peptide (PEPSCAN-ELISA) / Binding of serum 37 to looped/cyclic peptide (PEPSCAN-ELISA) / Binding of serum 37 to looped/cyclic peptides of protein X1 of SARS-CoV Urbani / Binding of serum 6 to linear peptides of protein X2 / Binding of serum 37 to linear peptides of protein X2 / Binding of serum 37 to looped/cyclic peptides of protein X2 of SARS-CoV Urbani / Binding of serum 6 to linear peptides of protein M of SARS-CoV Urbani / Binding of serum 37 to linear peptides of protein M of SARS-CoV Urbani / Binding of serum 6 to looped/cyclic peptides of protein M of SARS-CoV Urbani / Binding of serum 37 to looped/cyclic peptides of protein M of SARS-CoV Urbani / Binding of serum 6 to linear peptides of protein X3 of SARS-CoV Urbani / Binding of serum 37 to linear peptides of protein X3 of SARS-CoV Urbani / Binding of serum 37 to looped/cyclic peptides of protein X3 of SARS-CoV Urbani / Binding of serum 6 to linear peptides of protein X4 of SARS-CoV Urbani / Binding of serum 37 to linear peptides of protein X4 of SARS-CoV Urbani / Binding of serum 37 to looped/cyclic peptides of protein X4 of SARS-CoV Urbani / Binding of serum 6 to linear peptides of protein X5 of SARS-CoV Urbani / Binding of serum 37 to linear peptides of protein X5 of SARS-CoV Urbani / Binding of serum 37 to looped/cyclic peptides of protein X5 of SARS-CoV Urbani / Binding of serum 6 to linear peptides of protein N of SARS-CoV Urbani / Binding of serum 37 to linear peptides of protein N of SARS-CoV Urbani / Binding of serum 6 to linear peptide (PEPSCAN-ELISA) / Binding of serum 1a to looped/cyclic peptides of protein N of SARS-CoV Urbani / Binding of serum 1b to looped/cyclic peptides of protein N of SARS-CoV Urbani / Binding of serum 2 to looped/cyclic peptides of protein N of SARS-CoV Urbani / Binding of serum 6 to looped/cyclic peptides of protein N of SARS-CoV Urbani / Binding of serum 37 to looped/cyclic peptides of protein N of SARS-CoV Urbani / Binding of serum 62 to looped/cyclic peptides of protein N of SARS-CoV Urbani / Binding of serum London to looped/cyclic peptides of protein N of SARS-CoV Urbani / Binding of serum SARS-green to looped/cyclic peptides of protein N of SARS-CoV Urbani: unit not given here
sequence,measurement,setting,value
AILTALRLCAYCCNI,Binding of a rabbit serum to linear peptides,[1],0.2
same,Binding of a rabbit serum to looped peptides,[1],0.6
same,Binding of Control Serum Blood-Bank to Looped peptides,[2],0.6
same,Binding of Control serum Blood-bank to linear peptides,[2],0.6
same,Binding of Control serum LUMC to linear peptides,[2],0.6
same,Binding of Control serum LUMC to looped peptides,[2],0.8
same,Binding of serum 1a to linear peptides of protein E of SARS-CoV Urbani,[3],0.6
same,Binding of serum 1a to looped/cyclic peptides of protein E of SARS-CoV Urbani,[3],0.8
same,Binding of serum 1b to linear peptides of protein E of SARS-CoV Urbani,[3],0.4
same,Binding of serum 1b to looped/cyclic peptides of protein E of SARS-CoV Urbani,[3],0.6
same,Binding of serum 2 to linear peptides of protein E of SARS-CoV Urbani,[3],0.5
same,Binding of serum 2 to looped/cyclic peptides of protein E of SARS-CoV Urbani,[3],0.7
same,Binding of serum 6 to linear peptides of protein E of SARS-CoV Urbani,[3],0.3
same,Binding of serum 6 to looped/cyclic peptides of protein E of SARS-CoV Urbani,[3],0.5
same,Binding of serum 37 to linear peptides of protein E of SARS-CoV Urbani,[3],0.4
same,Binding of serum 37 to looped/cyclic peptides of protein E of SARS-CoV Urbani,[3],0.7
same,Binding of serum 62 to linear peptides of protein E of SARS-CoV Urbani,[3],0.4
same,Binding of serum 62 to looped/cyclic peptides of protein E of SARS-CoV Urbani,[3],0.8
same,Binding of serum London to linear peptides of protein E of SARS-CoV Urbani,[3],0.5
same,Binding of serum London to looped/cyclic peptides of protein E of SARS-CoV Urbani,[3],0.4
same,Binding of serum SARS-green to linear peptides of protein E of SARS-CoV Urbani,[3],0.5
same,Binding of serum SARS-green to looped/cyclic peptides of protein E of SARS-CoV Urbani,[3],0.5
same,Binding of serum SARS-yellow to linear peptides of protein E of SARS-CoV Urbani,[3],0.1
same,Binding of serum SARS-yellow to looped/cyclic peptides of protein E of SARS-CoV Urbani,[3],0.9
ETGTLIVNSVLLFLA,Binding of a rabbit serum to linear peptides,[1],0.3
same,Binding of a rabbit serum to looped peptides,[1],0.0
same,Binding of Control Serum Blood-Bank to Looped peptides,[2],0.5
same,Binding of Control serum Blood-bank to linear peptides,[2],0.5
same,Binding of Control serum LUMC to linear peptides,[2],0.8
same,Binding of Control serum LUMC to looped peptides,[2],0.5
same,Binding of serum 1a to linear peptides of protein E of SARS-CoV Urbani,[3],0.8
same,Binding of serum 1a to looped/cyclic peptides of protein E of SARS-CoV Urbani,[3],0.5
same,Binding of serum 1b to linear peptides of protein E of SARS-CoV Urbani,[3],0.7
same,Binding of serum 1b to looped/cyclic peptides of protein E of SARS-CoV Urbani,[3],0.4
same,Binding of serum 2 to linear peptides of protein E of SARS-CoV Urbani,[3],0.8
same,Binding of serum 2 to looped/cyclic peptides of protein E of SARS-CoV Urbani,[3],0.5
same,Binding of serum 6 to linear peptides of protein E of SARS-CoV Urbani,[3],0.5
same,Binding of serum 6 to looped/cyclic peptides of protein E of SARS-CoV Urbani,[3],0.4
same,Binding of serum 37 to linear peptides of protein E of SARS-CoV Urbani,[3],0.4
same,Binding of serum 37 to looped/cyclic peptides of protein E of SARS-CoV Urbani,[3],0.5
same,Binding of serum 62 to linear peptides of protein E of SARS-CoV Urbani,[3],0.4
same,Binding of serum 62 to looped/cyclic peptides of protein E of SARS-CoV Urbani,[3],0.7
same,Binding of serum London to linear peptides of protein E of SARS-CoV Urbani,[3],0.8
same,Binding of serum London to looped/cyclic peptides of protein E of SARS-CoV Urbani,[3],0.4
same,Binding of serum SARS-green to linear peptides of protein E of SARS-CoV Urbani,[3],0.6
same,Binding of serum SARS-green to looped/cyclic peptides of protein E of SARS-CoV Urbani,[3],0.3
same,Binding of serum SARS-yellow to linear peptides of protein E of SARS-CoV Urbani,[3],0.4
same,Binding of serum SARS-yellow to looped/cyclic peptides of protein E of SARS-CoV Urbani,[3],0.5
FLAFVVFLLVTLAIL,Binding of a rabbit serum to linear peptides,[1],0.0
same,Binding of a rabbit serum to looped peptides,[1],0.2
same,Binding of Control Serum Blood-Bank to Looped peptides,[2],0.8
same,Binding of Control serum Blood-bank to linear peptides,[2],0.4
same,Binding of Control serum LUMC to linear peptides,[2],0.4
same,Binding of Control serum LUMC to looped peptides,[2],0.6
same,Binding of serum 1a to linear peptides of protein E of SARS-CoV Urbani,[3],0.7
same,Binding of serum 1a to looped/cyclic peptides of protein E of SARS-CoV Urbani,[3],0.5
same,Binding of serum 1b to linear peptides of protein E of SARS-CoV Urbani,[3],0.5
same,Binding of serum 1b to looped/cyclic peptides of protein E of SARS-CoV Urbani,[3],0.5
same,Binding of serum 2 to linear peptides of protein E of SARS-CoV Urbani,[3],0.2
same,Binding of serum 2 to looped/cyclic peptides of protein E of SARS-CoV Urbani,[3],0.6
same,Binding of serum 6 to linear peptides of protein E of SARS-CoV Urbani,[3],0.4
same,Binding of serum 6 to looped/cyclic peptides of protein E of SARS-CoV Urbani,[3],0.5
same,Binding of serum 37 to linear peptides of protein E of SARS-CoV Urbani,[3],0.3
same,Binding of serum 37 to looped/cyclic peptides of protein E of SARS-CoV Urbani,[3],0.6
same,Binding of serum 62 to linear peptides of protein E of SARS-CoV Urbani,[3],0.1
same,Binding of serum 62 to looped/cyclic peptides of protein E of SARS-CoV Urbani,[3],0.7
same,Binding of serum London to linear peptides of protein E of SARS-CoV Urbani,[3],0.4
same,Binding of serum London to looped/cyclic peptides of protein E of SARS-CoV Urbani,[3],0.4
same,Binding of serum SARS-green to linear peptides of protein E of SARS-CoV Urbani,[3],0.7
same,Binding of serum SARS-green to looped/cyclic peptides of protein E of SARS-CoV Urbani,[3],0.4
same,Binding of serum SARS-yellow to linear peptides of protein E of SARS-CoV Urbani,[3],0.3
same,Binding of serum SARS-yellow to looped/cyclic peptides of protein E of SARS-CoV Urbani,[3],0.5
FNPETNILLNVPLRG,Rabbit serum linear peptides,[1],0.0
same,Rabbit serum looped peptides,[1],0.4
same,Binding of Control Serum Blood-Bank to Looped peptides of the protein M of SARS-CoV Urbani,[2],0.8
same,Binding of Control serum Blood-bank to linear peptides of the protein M of SARS-CoV Urbani,[2],0.6
same,Binding of Control serum LUMC to linear peptides of the protein M of SARS-CoV Urbani,[2],0.7
same,Binding of Control serum LUMC to looped peptides of the protein M of SARS-CoV Urbani,[2],0.9
same,Binding of serum 1a to linear peptides of protein M of SARS-CoV Urbani,[3],0.8
same,Binding of serum 1a to looped/cyclic peptides of protein M of SARS-CoV Urbani,[3],0.8
same,Binding of serum 1b to linear peptides of protein M of SARS-CoV Urbani,[3],0.6
same,Binding of serum 1b to looped/cyclic peptides of protein M of SARS-CoV Urbani,[3],0.8
same,Binding of serum 2 to linear peptides of protein M of SARS-CoV Urbani,[3],0.5
same,Binding of serum 2 to looped/cyclic peptides of protein M of SARS-CoV Urbani,[3],0.7
same,Binding of serum 6 to linear peptides of protein M of SARS-CoV Urbani,[3],0.5
same,Binding of serum 6 to looped/cyclic peptides of protein M of SARS-CoV Urbani,[3],0.7
same,Binding of serum 37 to linear peptides of protein M of SARS-CoV Urbani,[3],0.5
same,Binding of serum 37 to looped/cyclic peptides of protein M of SARS-CoV Urbani,[3],0.9
same,Binding of serum 62 to linear peptides of protein M of SARS-CoV Urbani,[3],0.4
same,Binding of serum 62 to looped/cyclic peptides of protein M of SARS-CoV Urbani,[3],0.8
same,Binding of serum London to linear peptides of protein M of SARS-CoV Urbani,[3],0.3
same,Binding of serum London to looped/cyclic peptides of protein M of SARS-CoV Urbani,[3],0.3
same,Binding of serum SARS-green to linear peptides of protein M of SARS-CoV Urbani,[3],0.5
same,Binding of serum SARS-green to looped/cyclic peptides of protein M of SARS-CoV Urbani,[3],0.3
same,Binding of serum SARS-yellow to linear peptides of protein M of SARS-CoV Urbani,[3],0.2
same,Binding of serum SARS-yellow to looped/cyclic peptides of protein M of SARS-CoV Urbani,[3],0.8
